Test results from patent publication US20250101023A1, “HETEROARYL DERIVATIVE AND USES THEREOF” (IUCF-HYU (INDUSTRY-UNIVERSITY COOPERATION FOUNDATION …, priority 2022, published 2025).

Legend:
SSTK/TSSK6 = SSTK/TSSK6 (Homo sapiens (Human), UniProt Q9BXA6); experiment: Kinome-wide profiling; format: biochemical; settings: read-out: % Residual Activity (mean)
LOK/STK10 = LOK/STK10 (Homo sapiens (Human), UniProt O94804); experiment: Kinome-wide profiling; format: biochemical; settings: read-out: % Residual Activity (mean)
PKCmu/PRKD1 = PKCmu/PRKD1 (Homo sapiens (Human), UniProt Q15139); experiment: Kinome-wide profiling; format: biochemical; settings: read-out: % Residual Activity (mean)
NEK6 = NEK6 (Homo sapiens (Human), UniProt Q9HC98); experiment: Kinome-wide profiling; format: biochemical; settings: read-out: % Residual Activity (mean)
CAMK2b = CAMK2b (Homo sapiens (Human), UniProt Q13554); experiment: Kinome-wide profiling; format: biochemical; settings: read-out: % Residual Activity (mean)
STK38/NDR1 = STK38/NDR1 (Homo sapiens (Human), UniProt Q15208); experiment: Kinome-wide profiling; format: biochemical; settings: read-out: % Residual Activity (mean)
PKCg = PKCg (Homo sapiens (Human), UniProt P05129); experiment: Kinome-wide profiling; format: biochemical; settings: read-out: % Residual Activity (mean)
EPHA7 = EPHA7 (Homo sapiens (Human), UniProt Q15375); experiment: Kinome-wide profiling; format: biochemical; settings: read-out: % Residual Activity (mean)
MYO3b = MYO3b (Homo sapiens (Human), UniProt Q8WXR4); experiment: Kinome-wide profiling; format: biochemical; settings: read-out: % Residual Activity (mean)
CDK4/cyclin D1 = CDK4/cyclin D1 (Homo sapiens (Human), UniProt P11802); experiment: Kinome-wide profiling; format: biochemical; settings: read-out: % Residual Activity (mean)
MKK7 = MKK7 (Homo sapiens (Human), UniProt O14733); experiment: Kinome-wide profiling; format: biochemical; settings: read-out: % Residual Activity (mean)
PKCzeta = PKCzeta (Homo sapiens (Human), UniProt Q05513); experiment: Kinome-wide profiling; format: biochemical; settings: read-out: % Residual Activity (mean)
CK1g1 = CK1g1 (Homo sapiens (Human), UniProt Q9HCP0); experiment: Kinome-wide profiling; format: biochemical; settings: read-out: % Residual Activity (mean)
HIPK3 = HIPK3 (Homo sapiens (Human), UniProt Q9H422); experiment: Kinome-wide profiling; format: biochemical; settings: read-out: % Residual Activity (mean)
CHK1 = CHK1 (Homo sapiens (Human), UniProt O14757); experiment: Kinome-wide profiling; format: biochemical; settings: read-out: % Residual Activity (mean)
STK16 = STK16 (Homo sapiens (Human), UniProt O75716); experiment: Kinome-wide profiling; format: biochemical; settings: read-out: % Residual Activity (mean)
PHKg1 = PHKg1 (Homo sapiens (Human), UniProt Q16816); experiment: Kinome-wide profiling; format: biochemical; settings: read-out: % Residual Activity (mean)
ROS/ROS1 = ROS/ROS1 (Homo sapiens (Human), UniProt P08922); experiment: Kinome-wide profiling; format: biochemical; settings: read-out: % Residual Activity (mean)
PAK3 = PAK3 (Homo sapiens (Human), UniProt O75914); experiment: Kinome-wide profiling; format: biochemical; settings: read-out: % Residual Activity (mean)
TNIK = TNIK (Homo sapiens (Human), UniProt Q9UKE5); experiment: Kinome-wide profiling; format: biochemical; settings: read-out: % Residual Activity (mean)
DAPK2 = DAPK2 (Homo sapiens (Human), UniProt Q9UIK4); experiment: Kinome-wide profiling; format: biochemical; settings: read-out: % Residual Activity (mean)
LIMK1 = LIMK1 (Homo sapiens (Human), UniProt P53667); experiment: Kinome-wide profiling; format: biochemical; settings: read-out: % Residual Activity (mean)
PKG1b = PKG1b (Homo sapiens (Human), UniProt Q13976); experiment: Kinome-wide profiling; format: biochemical; settings: read-out: % Residual Activity (mean)
ARK5/NUAK1 = ARK5/NUAK1 (Homo sapiens (Human), UniProt O60285); experiment: Kinome-wide profiling; format: biochemical; settings: read-out: % Residual Activity (mean)
CDK5/p35 = CDK5/p35 (Homo sapiens (Human), UniProt Q00535); experiment: Kinome-wide profiling; format: biochemical; settings: read-out: % Residual Activity (mean)
LCK2/ICK = LCK2/ICK (Homo sapiens (Human), UniProt Q9UPZ9); experiment: Kinome-wide profiling; format: biochemical; settings: read-out: % Residual Activity (mean)
[1] = Body weight in SK-Br3 xenograft model; format: in vivo, mouse; settings: 10 mg/kg and 20 mg/kg, i.p. twice a week
Procedure: A mouse efficacy experiment was conducted after obtaining approval from the Laboratory Animal Ethics Committee of GenNBio (Review No.: GN-IACUC-Research 22-02-07). SK-Br3 and HCC-1954 cells (1×10^6 cells each) mixed with Matrigel (BD Biosciences) were […] injected into 5-week-old female Balb/c nude mice (Orient Bio, Seongnam, Republic of Korea). After tumors reached a size of about 100 mm^3, the compound, trastuzumab (20 mg/kg), and the like were intraperitoneally injected into mice (n=8 per group)(vehicle: 8% DMSO, 4% Tween-80, 88% PBS). The tumor size was measured twice weekly for about 4 weeks and calculated as follows. Volume (mm^3)=(a×b^2)/2; “a”, maximum diameter; “b”, vertical diameter

CDK6/cyclin D3 = CDK6/cyclin D3 (Homo sapiens (Human), UniProt Q00534); experiment: Kinome-wide profiling; format: biochemical; settings: read-out: % Residual Activity (mean)
HIPK4 = HIPK4 (Homo sapiens (Human), UniProt Q8NE63); experiment: Kinome-wide profiling; format: biochemical; settings: read-out: % Residual Activity (mean)
EPHA8 = EPHA8 (Homo sapiens (Human), UniProt P29322); experiment: Kinome-wide profiling; format: biochemical; settings: read-out: % Residual Activity (mean)
CDK2/cyclin O = CDK2/cyclin O (Homo sapiens (Human), UniProt P24941); experiment: Kinome-wide profiling; format: biochemical; settings: read-out: % Residual Activity (mean)
CK2a2 = CK2a2 (Homo sapiens (Human), UniProt P19784); experiment: Kinome-wide profiling; format: biochemical; settings: read-out: % Residual Activity (mean)
CLK3 = CLK3 (Homo sapiens (Human), UniProt P49761); experiment: Kinome-wide profiling; format: biochemical; settings: read-out: % Residual Activity (mean)
MAST3 = MAST3 (Homo sapiens (Human), UniProt O60307); experiment: Kinome-wide profiling; format: biochemical; settings: read-out: % Residual Activity (mean)
BRSK1 = BRSK1 (Homo sapiens (Human), UniProt Q8TDC3); experiment: Kinome-wide profiling; format: biochemical; settings: read-out: % Residual Activity (mean)

Chain of TNIK (Q9UKE5 whole entry): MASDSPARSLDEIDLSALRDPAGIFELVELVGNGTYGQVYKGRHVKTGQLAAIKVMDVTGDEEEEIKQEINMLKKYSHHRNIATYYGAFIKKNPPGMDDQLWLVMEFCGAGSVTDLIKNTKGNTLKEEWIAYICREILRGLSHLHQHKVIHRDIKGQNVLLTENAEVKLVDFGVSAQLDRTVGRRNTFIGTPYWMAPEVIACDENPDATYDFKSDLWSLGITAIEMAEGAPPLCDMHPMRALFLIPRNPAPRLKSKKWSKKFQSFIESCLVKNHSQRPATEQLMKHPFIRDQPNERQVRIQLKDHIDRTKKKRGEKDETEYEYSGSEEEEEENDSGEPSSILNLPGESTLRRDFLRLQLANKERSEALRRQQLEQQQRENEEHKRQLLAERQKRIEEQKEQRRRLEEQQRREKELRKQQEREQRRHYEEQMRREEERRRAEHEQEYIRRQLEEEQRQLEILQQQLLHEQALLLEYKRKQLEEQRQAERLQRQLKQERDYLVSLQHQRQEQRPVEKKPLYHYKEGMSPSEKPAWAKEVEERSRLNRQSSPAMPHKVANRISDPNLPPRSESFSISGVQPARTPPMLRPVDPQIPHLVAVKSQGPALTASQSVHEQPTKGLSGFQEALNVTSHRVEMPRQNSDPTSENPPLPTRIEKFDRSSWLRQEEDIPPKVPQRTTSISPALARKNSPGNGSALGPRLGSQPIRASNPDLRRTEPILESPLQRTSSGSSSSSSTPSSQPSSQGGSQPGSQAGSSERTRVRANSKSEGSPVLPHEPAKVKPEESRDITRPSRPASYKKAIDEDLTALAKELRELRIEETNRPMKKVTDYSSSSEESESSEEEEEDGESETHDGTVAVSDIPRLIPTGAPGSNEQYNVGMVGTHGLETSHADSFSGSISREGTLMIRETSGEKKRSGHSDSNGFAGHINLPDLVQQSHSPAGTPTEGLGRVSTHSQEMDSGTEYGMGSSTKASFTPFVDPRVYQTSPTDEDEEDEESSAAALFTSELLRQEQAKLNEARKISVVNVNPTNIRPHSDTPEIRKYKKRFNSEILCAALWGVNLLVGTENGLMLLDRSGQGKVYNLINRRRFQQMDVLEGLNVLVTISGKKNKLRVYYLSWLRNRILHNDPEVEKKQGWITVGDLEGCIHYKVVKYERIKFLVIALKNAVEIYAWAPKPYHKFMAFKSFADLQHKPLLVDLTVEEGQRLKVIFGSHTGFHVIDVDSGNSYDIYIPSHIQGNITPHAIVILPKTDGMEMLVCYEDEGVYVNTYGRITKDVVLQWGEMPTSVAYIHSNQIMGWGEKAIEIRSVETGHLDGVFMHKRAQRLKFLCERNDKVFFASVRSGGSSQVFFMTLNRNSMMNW
Chain of EPHA8 (P29322 28-1005): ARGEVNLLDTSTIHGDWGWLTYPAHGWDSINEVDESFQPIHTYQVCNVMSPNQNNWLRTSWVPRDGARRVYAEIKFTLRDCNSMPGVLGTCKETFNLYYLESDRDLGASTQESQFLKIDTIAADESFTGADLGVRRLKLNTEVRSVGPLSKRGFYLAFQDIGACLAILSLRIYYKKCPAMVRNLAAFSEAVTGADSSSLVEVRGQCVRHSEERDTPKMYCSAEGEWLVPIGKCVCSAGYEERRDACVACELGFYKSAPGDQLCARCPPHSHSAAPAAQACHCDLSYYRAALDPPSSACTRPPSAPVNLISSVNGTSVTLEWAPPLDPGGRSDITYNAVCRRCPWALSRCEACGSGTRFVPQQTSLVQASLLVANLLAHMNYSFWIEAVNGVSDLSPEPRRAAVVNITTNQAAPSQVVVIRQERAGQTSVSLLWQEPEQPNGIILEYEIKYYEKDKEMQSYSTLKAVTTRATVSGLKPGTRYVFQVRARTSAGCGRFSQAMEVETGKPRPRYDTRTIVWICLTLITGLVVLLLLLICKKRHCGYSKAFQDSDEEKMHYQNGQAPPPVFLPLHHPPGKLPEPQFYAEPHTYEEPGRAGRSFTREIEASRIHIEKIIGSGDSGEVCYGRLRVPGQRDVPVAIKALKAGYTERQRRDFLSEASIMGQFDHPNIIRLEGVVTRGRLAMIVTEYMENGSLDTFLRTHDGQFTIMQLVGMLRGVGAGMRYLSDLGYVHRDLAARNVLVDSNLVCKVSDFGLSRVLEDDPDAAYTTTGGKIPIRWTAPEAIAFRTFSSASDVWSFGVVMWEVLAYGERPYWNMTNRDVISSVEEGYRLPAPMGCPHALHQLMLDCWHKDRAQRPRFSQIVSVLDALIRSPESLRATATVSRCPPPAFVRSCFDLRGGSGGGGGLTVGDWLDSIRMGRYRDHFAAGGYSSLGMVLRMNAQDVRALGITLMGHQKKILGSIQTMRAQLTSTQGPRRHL
Chain of PAK3 (O75914 whole entry): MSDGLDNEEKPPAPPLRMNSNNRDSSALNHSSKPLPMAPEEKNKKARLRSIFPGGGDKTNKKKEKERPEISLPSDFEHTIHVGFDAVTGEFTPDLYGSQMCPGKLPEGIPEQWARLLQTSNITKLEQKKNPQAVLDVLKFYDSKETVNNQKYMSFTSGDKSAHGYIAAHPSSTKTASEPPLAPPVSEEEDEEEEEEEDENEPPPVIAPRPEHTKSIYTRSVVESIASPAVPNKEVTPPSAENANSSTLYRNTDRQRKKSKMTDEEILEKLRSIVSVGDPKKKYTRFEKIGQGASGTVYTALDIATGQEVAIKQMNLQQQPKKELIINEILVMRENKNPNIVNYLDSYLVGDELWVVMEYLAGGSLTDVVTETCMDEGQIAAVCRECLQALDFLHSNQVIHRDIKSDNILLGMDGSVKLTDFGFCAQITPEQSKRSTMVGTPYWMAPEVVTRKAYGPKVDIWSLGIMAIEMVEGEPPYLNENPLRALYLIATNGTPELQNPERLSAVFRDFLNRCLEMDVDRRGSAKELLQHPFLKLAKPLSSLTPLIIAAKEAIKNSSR
Chain of CK1g1 (Q9HCP0 whole entry): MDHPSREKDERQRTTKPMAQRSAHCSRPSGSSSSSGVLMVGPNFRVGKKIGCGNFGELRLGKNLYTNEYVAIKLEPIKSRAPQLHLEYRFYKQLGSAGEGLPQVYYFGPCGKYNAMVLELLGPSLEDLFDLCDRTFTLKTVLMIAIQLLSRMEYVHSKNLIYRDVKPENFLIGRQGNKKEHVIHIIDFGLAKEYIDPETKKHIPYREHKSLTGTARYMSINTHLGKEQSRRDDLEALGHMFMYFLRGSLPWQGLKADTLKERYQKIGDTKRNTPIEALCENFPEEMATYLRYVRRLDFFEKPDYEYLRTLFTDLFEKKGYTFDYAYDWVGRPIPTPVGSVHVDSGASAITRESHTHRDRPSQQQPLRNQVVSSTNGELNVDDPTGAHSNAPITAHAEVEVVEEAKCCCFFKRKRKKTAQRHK
Chain of MAST3 (O60307 whole entry): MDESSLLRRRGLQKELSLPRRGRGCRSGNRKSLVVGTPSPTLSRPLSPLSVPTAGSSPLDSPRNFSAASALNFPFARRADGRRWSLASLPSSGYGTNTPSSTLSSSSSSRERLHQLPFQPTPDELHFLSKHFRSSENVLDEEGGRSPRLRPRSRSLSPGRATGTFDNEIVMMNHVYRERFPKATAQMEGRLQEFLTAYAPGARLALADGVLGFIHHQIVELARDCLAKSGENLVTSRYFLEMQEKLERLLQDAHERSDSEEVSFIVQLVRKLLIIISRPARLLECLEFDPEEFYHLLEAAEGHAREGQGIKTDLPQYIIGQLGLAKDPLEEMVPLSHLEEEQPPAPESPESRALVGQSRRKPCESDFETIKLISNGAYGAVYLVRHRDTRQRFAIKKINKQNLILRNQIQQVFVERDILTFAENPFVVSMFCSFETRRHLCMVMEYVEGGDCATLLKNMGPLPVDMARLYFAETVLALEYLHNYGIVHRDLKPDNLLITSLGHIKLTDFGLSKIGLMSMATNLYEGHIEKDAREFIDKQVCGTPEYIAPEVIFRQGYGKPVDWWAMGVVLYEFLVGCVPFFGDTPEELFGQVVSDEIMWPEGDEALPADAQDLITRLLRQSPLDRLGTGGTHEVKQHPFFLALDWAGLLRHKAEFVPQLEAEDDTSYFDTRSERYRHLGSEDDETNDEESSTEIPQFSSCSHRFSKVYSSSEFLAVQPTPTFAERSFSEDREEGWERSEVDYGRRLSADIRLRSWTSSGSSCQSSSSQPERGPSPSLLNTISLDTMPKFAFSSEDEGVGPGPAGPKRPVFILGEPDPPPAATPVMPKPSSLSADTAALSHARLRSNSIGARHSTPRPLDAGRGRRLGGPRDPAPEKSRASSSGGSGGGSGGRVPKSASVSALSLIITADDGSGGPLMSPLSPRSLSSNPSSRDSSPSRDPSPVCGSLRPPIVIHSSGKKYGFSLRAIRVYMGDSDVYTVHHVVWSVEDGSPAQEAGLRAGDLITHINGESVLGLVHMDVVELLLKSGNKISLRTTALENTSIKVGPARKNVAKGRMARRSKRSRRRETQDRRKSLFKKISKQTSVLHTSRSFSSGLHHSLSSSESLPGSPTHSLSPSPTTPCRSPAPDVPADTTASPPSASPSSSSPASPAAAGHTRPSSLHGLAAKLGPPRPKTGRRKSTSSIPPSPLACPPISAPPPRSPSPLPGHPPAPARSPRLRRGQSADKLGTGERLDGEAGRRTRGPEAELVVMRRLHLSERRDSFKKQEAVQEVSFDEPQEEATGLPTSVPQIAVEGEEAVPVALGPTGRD
Chain of DAPK2 (Q9UIK4 whole entry): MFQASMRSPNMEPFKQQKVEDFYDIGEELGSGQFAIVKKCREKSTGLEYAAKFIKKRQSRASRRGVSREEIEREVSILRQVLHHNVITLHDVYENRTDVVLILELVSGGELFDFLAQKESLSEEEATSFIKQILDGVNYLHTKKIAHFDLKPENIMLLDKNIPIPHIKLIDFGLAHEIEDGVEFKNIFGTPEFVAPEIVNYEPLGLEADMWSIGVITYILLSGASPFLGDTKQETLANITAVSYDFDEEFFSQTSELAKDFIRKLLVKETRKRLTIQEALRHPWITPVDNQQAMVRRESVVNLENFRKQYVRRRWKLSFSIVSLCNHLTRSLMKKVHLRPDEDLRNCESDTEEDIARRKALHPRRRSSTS

CCn1cnc2c(NCc3ccc(-c4ccccn4)nc3)nc(-c3ccc(N)nc3)nc21 [Example 53, N-([2,2′-bipyridin]-5-ylmethyl)-2-(6-aminopyridin-3-yl)-9-ethyl-9H-purin-6-amine]
remaining activity at 10 µM (SSTK/TSSK6): 86.9% | remaining activity at 10 µM (LOK/STK10): 41.4% | remaining activity at 10 µM (PKCmu/PRKD1): 70.3% | remaining activity at 10 µM (NEK6): 92.1% | remaining activity at 10 µM (CAMK2b): 65.2% | remaining activity at 10 µM (STK38/NDR1): 28.3% | remaining activity at 10 µM (PKCg): 49.5% | remaining activity at 10 µM (EPHA7): 31.3% | remaining activity at 10 µM (MYO3b): 68.1% | remaining activity at 10 µM (CDK4/cyclin D1): 33.5% | remaining activity at 10 µM (MKK7): 96.3% | remaining activity at 10 µM (PKCzeta): 90.2% | remaining activity at 10 µM (CK1g1): 22.9% | remaining activity at 10 µM (HIPK3): 94.1% | remaining activity at 10 µM (CHK1): 79.5% | remaining activity at 10 µM (STK16): 35.9% | remaining activity at 10 µM (PHKg1): 16.5% | remaining activity at 10 µM (ROS/ROS1): 27.8% | remaining activity at 10 µM (PAK3): 29.1% | remaining activity at 10 µM (TNIK): 69% | remaining activity at 10 µM (DAPK2): 85.7% | remaining activity at 10 µM (LIMK1): 59.9% | remaining activity at 10 µM (PKG1b): 97.6% | remaining activity at 10 µM (ARK5/NUAK1): 20.8% | remaining activity at 10 µM (CDK5/p35): 0.67% | remaining activity at 10 µM (LCK2/ICK): 39.6% | mouse body weight [1]: without any change in mouse weight | remaining activity at 10 µM (CDK6/cyclin D3): 12.9% | remaining activity at 10 µM (HIPK4): 43.9% | remaining activity at 10 µM (EPHA8): 94% | remaining activity at 10 µM (CDK2/cyclin O): 0.54% | remaining activity at 10 µM (CK2a2): 91.3% | remaining activity at 10 µM (CLK3): 94.6% | remaining activity at 10 µM (MAST3): 39.3% | remaining activity at 10 µM (BRSK1): 92.8%
